We go through 33 compounds from patent publication US20170342025A1, “ANTIMICROBIAL COMPOUNDS, COMPOSITIONS AND METHODS” (Swansea University, priority 2014, published 2017).

Like-named read-outs stand apart in the source and are kept apart here.

Series [1] relates to Staphylococcus aureus (strain 9518). Description: MIC determination against Staphylococcus aureus (Andrews protocol). It counts as cell-based. The note with it: for MIC: Staphylococcus aureus, read-out: MIC S. aureus. The method, then:
(§1) Minimum Inhibitory Concentrations (MICs) for the compounds prepared were determined against Escherichia coli (strain JM109) and Staphylococcus aureus (strain 9518) using the protocols described by Andrews (J. Antimicrob. Chemother., 2001, 48, Suppl. S1, 5-16).

Series [2] deals with Escherichia coli (strain JM109). In words: MIC determination against Escherichia coli (Andrews protocol). It is filed as cell-based. The note with it: for MIC: Escherichia coli, read-out: MIC E. coli. How it is done: as §1
Setting [3] is: Staphylococcus aureus strain 9518.

With `Cl.N=C(N)N/N=C/c1cccc(OCc2ccc(Cl)cc2)c1`, the melting point (commonly the temperature, or range, at which the solid turns liquid) lay within 191 to 193 °C.

`Cl.N=C(N)N/N=C/c1cccc(OCc2cccc(C(F)(F)F)c2)c1Cl` yielded a melting point of 198 to 201 °C.

Compound `N=C(N)Nc1cccc2c1CCCC2.O=C(O)C(F)(F)F` [Compound 23d, 1-(5,6,7,8-tetrahydronaphthalen-1-yl)guanidine 2,2,2-trifluoroacetate] displayed a melting point of 153 to 155 °C. In addition, the minimum inhibitory concentration (MIC) (commonly the least concentration at which growth counts as inhibited) in series [1] (setting [3]) is over 100 µg/mL. Further, the MIC in series [2] (Escherichia coli strain JM109) was over 100 µg/mL.

`CC(=O)O.N=C(N)NN=Cc1cccc(OCc2cccc(C(F)(F)F)c2Cl)c1` [Compound 49b, 1-{[(3-{[2-chloro-3-(trifluoromethyl)phenyl]methoxy}phenyl)methylidene]amino} guanidine acetate]: the melting point is 190 to 192 °C. In addition, in series [1] (setting [3]), the MIC was 1 to 10 µg/mL. Also, the minimum inhibitory concentration (MIC) in series [2] (Escherichia coli strain JM109) was 1 to 10 µg/mL.

`Cl.N=C(N)N/N=C/c1cccc(OCc2ccc(C(F)(F)F)cc2)c1` [Compound 49d, (E)-Amino(2-(3-((4-(trifluoromethyl)benzyl)oxy)benzylidene) hydrazinyl) methaniminium chloride] came in with a melting point of 176 to 179 °C. Besides, the “MIC S. aureus” value in series [1] (setting [3]) is “++ (MIC 10-32 μg/mL)”. Further, the “MIC E. coli” value in series [2] (Escherichia coli strain JM109) is on record as “+++ (MIC 1-10 μg/mL)”.

Turning to `Cl.N=C(N)N/N=C/c1cccc(OCc2cccc(Cl)c2)c1` [Compound 49e, (E)-Amino(2-(3-((3-chlorobenzyl)oxy)benzylidene)hydrazinyl)methaniminium chloride], the MIC lay in the range of 10 to 32 µg/mL in series [1] (setting [3]) and 1 to 10 µg/mL in series [2] (Escherichia coli strain JM109).

Regarding `Cl.N=C(N)N/N=C/c1cccc(OCc2ccc(C(F)(F)F)cc2)c1` [Compound 49f, (E)-Amino(2-(3-((4-(trifluoromethyl)benzyl)oxy)benzylidene)hydrazinyl) methaniminium chloride], in series [1] (setting [3]), the “MIC S. aureus” value was “+++ (MIC 1-10 μg/mL)”. In addition, the “MIC E. coli” value in series [2] (Escherichia coli strain JM109) was “++ (MIC 10-32 μg/mL)”.

On to `CC(=O)O.[H]/N=C(\N)NN=Cc1ccc(OC)c(OCc2ccc(Cl)c(Cl)c2)c1` [Compound 49g, (E)-2-(3-((3,4-dichlorobenzyl)oxy)-4-methoxybenzylidene)hydrazine-1-carboximidamide acetate], for which the MIC in series [1] (setting [3]) fell in the range of 10 to 32 µg/mL; in series [2] (Escherichia coli strain JM109) it was 1 to 10 µg/mL.

Take `COc1cccc(COc2cccc(/C=N/NC(=N)N)c2Cl)c1Cl.Cl` [Compound 51a, (E)-Amino(2-(2-chloro-3-((2-chloro-3-methoxybenzyl)oxy)benzylidene) hydrazinyl)methaniminium chloride]: the melting point is 258 to 260 °C. Further, the minimum inhibitory concentration (MIC) in series [1] (setting [3]) was 32 to 100 µg/mL. In addition, in series [2] (Escherichia coli strain JM109), the minimal inhibitory concentration (MIC) was in the range of 32 to 100 µg/mL.

`Cl.N=C(N)N/N=C/c1cccc(OCc2ccccc2)c1Cl` [Compound 51b, (E)-Amino(2-(3-(benzyloxy)-2-chlorobenzylidene)hydrazinyl)methaniminium chloride] registered a melting point of 203 to 205 °C. In addition, the minimal inhibitory concentration (MIC) in series [1] (setting [3]) was in the range of 1 to 10 µg/mL. The MIC in series [2] (Escherichia coli strain JM109) is 1 to 10 µg/mL.

In the case of `Cl.N=C(N)N/N=C/c1cccc(OCc2cccc(Cl)c2)c1Cl` [Compound 51m, (E)-Amino(2-(2-chloro-3-((3-chlorobenzyl)oxy)benzylidene)hydrazinyl) methaniminium chloride], the minimum inhibitory concentration (MIC) is 10 to 32 µg/mL in series [1] (setting [3]) and 1 to 10 µg/mL in series [2] (Escherichia coli strain JM109).

With `N=C(N)NCc1cccc(N)c1.O=C(O)C(F)(F)F` [Compound 53a, Amino((3-aminobenzyl)amino)methaniminium 2,2,2-trifluoroacetate], the minimal inhibitory concentration (MIC) in series [1] and in series [2] was 32 to 100 µg/mL each time.

With `N=C(N)NCc1ccc(N)cc1.O=C(O)C(F)(F)F` [Compound 53b, Amino((4-aminobenzyl)amino)methaniminium 2,2,2-trifluoroacetate], the MIC in series [1] and in series [2] was 32 to 100 µg/mL in each case.

Take `N=C(N)NCc1ccc(NS(=O)(=O)c2cccc(Cl)c2)cc1.O=C(O)C(F)(F)F` [Compound 55a, Amino((4-((3-chlorophenyl)sulfonamido)benzyl)amino)methaniminium 2,2,2-trifluoroacetate]: the minimum inhibitory concentration (MIC) in series [1] (setting [3]) and in series [2] (Escherichia coli strain JM109) was 32 to 100 µg/mL in each case.

On to `N=C(N)NCc1ccc(NS(=O)(=O)c2ccc(Cl)cc2)cc1.O=C(O)C(F)(F)F` [Compound 55b, Amino((4-((4-chlorophenyl)sulfonamido)benzyl)amino)methaniminium 2,2,2-trifluoroacetate], for which the MIC in series [1] (setting [3]) and in series [2] (Escherichia coli strain JM109) was 32 to 100 µg/mL each time.

Turning to `N=C(N)NCc1ccc(NS(=O)(=O)c2cccc(Cl)c2Cl)cc1.O=C(O)C(F)(F)F` [Compound 55c, Amino((4-((2,3-dichlorophenyl)sulfonamido)benzyl)amino)methaniminium 2,2,2-trifluoroacetate], the minimum inhibitory concentration (MIC) in series [1] (setting [3]) and in series [2] (Escherichia coli strain JM109) was 32 to 100 µg/mL throughout.

As for `N=C(N)NCc1ccc(NS(=O)(=O)c2cccc(C(F)(F)F)c2)cc1.O=C(O)C(F)(F)F` [Compound 55d], the “MIC S. aureus” value in series [1] (setting [3]) is listed as “+ (32-100 μg/mL)”. The “MIC E. coli” value in series [2] (Escherichia coli strain JM109) is “+ (32-100 μg/mL)”.

Regarding `N=C(N)NCc1cccc(NS(=O)(=O)c2cccc(Cl)c2)c1.O=C(O)C(F)(F)F` [Compound 55e, Amino((3-((3-chlorophenyl)sulfonamido)benzyl)amino)methaniminium 2,2,2-trifluoroacetate], the MIC in series [1] (setting [3]) and in series [2] (Escherichia coli strain JM109) was 32 to 100 µg/mL each time.

With `N=C(N)NCc1cccc(NS(=O)(=O)c2ccc(Cl)cc2)c1.O=C(O)C(F)(F)F` [Compound 55f, Amino((3-((4-chlorophenyl)sulfonamido)benzyl)amino)methaniminium 2,2,2-trifluoroacetate], the MIC in series [1] (setting [3]) and in series [2] (Escherichia coli strain JM109) was 32 to 100 µg/mL throughout.

Consider `N=C(N)NCc1cccc(NS(=O)(=O)c2cccc(Cl)c2Cl)c1.O=C(O)C(F)(F)F` [Compound 55g, Amino((3-((2,3-dichlorophenyl)sulfonamido)benzyl)amino)methaniminium 2,2,2-trifluoroacetate], for which the minimal inhibitory concentration (MIC) in series [1] (setting [3]) and in series [2] (Escherichia coli strain JM109) was 32 to 100 µg/mL throughout.

Regarding `N=C(N)NCc1cccc(NS(=O)(=O)c2cccc(C(F)(F)F)c2)c1.O=C(O)C(F)(F)F` [Compound 55h, Amino((3-((3-(trifluoromethyl)phenyl)sulfonamido)benzyl)amino) methaniminium 2,2,2-trifluoroacetate], the MIC in series [1] (setting [3]) and in series [2] (Escherichia coli strain JM109) was 32 to 100 µg/mL throughout.

Take `N=C(N)NCc1cccc(NC(=O)c2ccccc2)c1.O=C(O)C(F)(F)F` [Compound 57a, Amino((3-benzamidobenzyl)amino)methaniminium 2,2,2-trifluoroacetate]: the minimum inhibitory concentration (MIC) in series [1] and in series [2] was 32 to 100 µg/mL each time.

Turning to `N=C(N)NCc1ccc(NC(=O)c2ccccc2)cc1.O=C(O)C(F)(F)F` [Compound 57b, Amino((4-benzamidobenzyl)amino)methaniminium 2,2,2-trifluoroacetate], the MIC in series [1] and in series [2] was 32 to 100 µg/mL throughout.

Take `N=C(N)Nc1ccc(CNC(=O)c2ccccc2)cc1.O=C(O)C(F)(F)F` [Compound 59a, Amino((4-(benzamidomethyl)phenyl)amino)methaniminium 2,2,2-trifluoroacetate]: the minimum inhibitory concentration (MIC) in series [1] and in series [2] was 32 to 100 µg/mL in each case.

As for `N=C(N)Nc1ccc(CNS(=O)(=O)c2ccccc2)cc1.O=C(O)C(F)(F)F` [Compound 59b, Amino((4-(phenylsulfonamidomethyl)phenyl)amino)methaniminium 2,2,2-trifluoroacetate], the minimal inhibitory concentration (MIC) in series [1] and in series [2] was 32 to 100 µg/mL each time.

On to `Cl.N=C(N)N/N=C/c1nccn1Cc1cccc(Cl)c1` [Compound 61a, (E)-amino(2-((1-(3-chlorobenzyl)-1H-imidazol-2-yl)methylene)hydrazinyl) methaniminium chloride], for which the MIC in series [1] (setting [3]) and in series [2] (Escherichia coli strain JM109) was 32 to 100 µg/mL throughout.

Regarding `Cl.N=C(N)N/N=C/c1nccn1Cc1ccc(Cl)cc1` [Compound 61b, (E)-Amino(2-((1-(4-chlorobenzyl)-1H-imidazol-2-yl)methylene)hydrazinyl) methaniminium chloride], the MIC in series [1] (setting [3]) and in series [2] (Escherichia coli strain JM109) was 10 to 32 µg/mL in each case.

Consider `Cl.N=C(N)N/N=C/c1nccn1Cc1cccc(C(F)(F)F)c1` [Compound 61c, (E)-Amino(2-((1-(3-(trifluoromethyl)benzyl)-1H-imidazol-2-yl)methylene) hydrazinyl)methaniminium chloride], for which the MIC in series [1] (setting [3]) and in series [2] (Escherichia coli strain JM109) was 32 to 100 µg/mL throughout.

Turning to `Cl.N=C(N)N/N=C/c1nccn1Cc1ccc(C(F)(F)F)cc1` [Compound 61d, (E)-Amino(2-((1-(4-(trifluoromethyl)benzyl)-1H-imidazol-2-yl)methylene) hydrazinyl)methaniminium chloride], the minimal inhibitory concentration (MIC) in series [1] (setting [3]) fell in the range of 10 to 32 µg/mL; in series [2] (Escherichia coli strain JM109) it was 1 to 10 µg/mL.

Turning to `Cl.N=C(N)N/N=C/c1cccn1Cc1cccc(Cl)c1` [Compound 61e, (E)-Amino(2-((1-(3-chlorobenzyl)-1H-pyrrol-2-yl)methylene)hydrazinyl) methaniminium chloride], the MIC in series [1] (setting [3]) was 10 to 32 µg/mL; in series [2] (Escherichia coli strain JM109) it was 32 to 100 µg/mL.

On to `Cl.N=C(N)N/N=C/c1cccn1Cc1ccc(Cl)cc1` [Compound 61f, (E)-Amino(2-((1-(4-chlorobenzyl)-1H-pyrrol-2-yl)methylene)hydrazinyl) methaniminium chloride], for which the minimal inhibitory concentration (MIC) in series [1] (setting [3]) was 10 to 32 µg/mL; in series [2] (Escherichia coli strain JM109), 32 to 100 µg/mL.

Take `Cl.N=C(N)N/N=C/c1cccn1Cc1cccc(C(F)(F)F)c1` [Compound 61g, (E)-Amino(2-((1-(3-(trifluoromethyl)benzyl)-1H-pyrrol-2-yl)methylene) hydrazinyl)methaniminium chloride]: the minimal inhibitory concentration (MIC) in series [1] (setting [3]) and in series [2] (Escherichia coli strain JM109) was 10 to 32 µg/mL throughout.

On to `Cl.N=C(N)N/N=C/c1cccn1Cc1ccc(C(F)(F)F)cc1` [Compound 61h, (E)-Amino(2-((1-(4-(trifluoromethyl)benzyl)-1H-pyrrol-2-yl)methylene) hydrazinyl)methaniminium chloride], for which the minimal inhibitory concentration (MIC) in series [1] (setting [3]) and in series [2] (Escherichia coli strain JM109) was 10 to 32 µg/mL throughout.
